In ChEMBL document CHEMBL3046336, “Assessment of the impact of insecticides on Anagrus nilaparvatae (Pang et Wang) (Hymenoptera: Mymanidae), an egg parasitoid of the rice planthopper, Nilaparvata lugens (Hemiptera: Delphacidae)” (Crop Prot, 2008):

How the values were obtained:
[1] = Acute contact toxicity against adult Anagrus nilaparvatae assessed as dead parasitoid wasps compound treated for 1 hr measured after 8 hr wash-out period
[2] = Acute oral toxicity against female adult Anagrus nilaparvatae in petridish under laboratory conditions assessed as mortality compound treated as emulsible concentrate with acetone and Triton X-100 measured after 1 to 8 hr; details: in vivo
[3] = Residual toxicity against compound treated rice leaves-fed adult Anagrus nilaparvatae assessed as mortality measured on day 0 post insecticide treatment to plant; details: in vivo, oral
[4] = Chronic toxicity against female adult Anagrus nilaparvatae in petridish under laboratory conditions assessed as reduction in longetivity compound treated as emulsible concentrate with acetone and Triton X-100 relative to untreated control; design: scale not given: the % may be the effect or the level left
[5] = Chronic toxicity against female adult Anagrus nilaparvatae in petridish under laboratory conditions assessed as reduction in fecundity compound treated as emulsible concentrate with acetone and […] relative to untreated control; design: scale not given: the % may be the effect or the level left
[6] = Acute oral toxicity against female adult Anagrus nilaparvatae in petridish under laboratory conditions assessed as mortality compound treated as emulsible concentrate with acetone and Triton X-100 measured after 8 hr; details: in vivo
[7] = Residual toxicity against compound treated rice leaves-fed adult Anagrus nilaparvatae assessed as mortality measured on day 7 post insecticide treatment to plant; details: in vivo
[8] = Acute oral toxicity against female adult Anagrus nilaparvatae in petridish under laboratory conditions assessed as mortality compound treated as emulsible concentrate with acetone and Triton X-100 measured after 2 hr; details: in vivo
[9] = Acute oral toxicity against female adult Anagrus nilaparvatae in petridish under laboratory conditions assessed as mortality compound treated as emulsible concentrate with acetone and Triton X-100 measured after 4 hr; details: in vivo

SMILES	LC50 [1] [mgAi/L]	mortality at 8 h [6] [%]	mortality at 7 day ([7]; oral) [%]	also measured
CC[C@H](C)[C@H]1O[C@]2(C=C[C@@H]1C)C[C@@H]1C[C@@H](C/C=C(\C)[C@@H](O[C@H]3C[C@H](OC)[C@@H](O[C@H]4C[C@H](OC)[C@@H](O)[C@H](C)O4)[C@H](C)O3)[C@@H](C)/C=C/C=C3\CO[C@@H]4[C@H](O)C(C)=C[C@@H](C(=O)O1)[C@]34O)O2.CO[C@H]1C[C@H](O[C@H]2[C@H](C)O[C@@H](O[C@@H]3/C(C)=C/C[C@@H]4C[C@@H](C[C@]5(C=C[C@H](C)[C@@H](C(C)C)O5)O4)OC(=O)[C@@H]4C=C(C)[C@@H](O)[C@H]5OC/C(=C\C=C\[C@@H]3C)[C@]54O)C[C@@H]2OC)O[C@@H](C)[C@@H]1O [ABAMECTIN]	8.499			
CC(C)N1C(=O)N(c2ccccc2)CS/C1=N\C(C)(C)C [BUPROFEZIN]	> 1000			mortality [2]: 29.4%; mortality at 0 day [3]: 1.1%
O=C(NC(=O)c1c(F)cccc1F)Nc1cc(Cl)c(Oc2ncc(C(F)(F)F)cc2Cl)c(Cl)c1 [CHLORFLUAZURON]	> 1000			Activity [4]: 29%; mortality [2]: 4%; Activity [5]: 49%
CCOP(=S)(OCC)Oc1nc(Cl)c(Cl)cc1Cl [CHLORPYRIFOS]	0.002	100	< 10	
COP(=O)(OC)OC=C(Cl)Cl [DICHLORVOS]	15.946	100		mortality at 2 h [8]: 100%
N#Cc1nn(-c2c(Cl)cc(C(F)(F)F)cc2Cl)c(N)c1[S+]([O-])C(F)(F)F (configuration not stated) [FIPRONIL]	0.18	100	50	
Cc1cc(C)cc(C(=O)N(NC(=O)c2ccc3c(c2C)OC(C)C3)C(C)(C)C)c1 (configuration not stated) [FUXIAN]	> 1000			Activity [4]: 29%; mortality [2]: 1.1%; Activity [5]: 47%
O=C(NC(=O)c1c(F)cccc1F)Nc1cc(Cl)c(OC(F)(F)C(F)F)c(Cl)c1 [HEXAFLUMURON]	> 1000			Activity [4]: 24%; mortality [2]: 1.3%; Activity [5]: 28%
O=[N+]([O-])NC1=NCCN1Cc1ccc(Cl)nc1 [IMIDACLOPRID]	0.021		80.7	Activity [9]: Toxic; mortality at 0 day [3]: 97.6%
CNC(=O)Oc1ccccc1C(C)C [ISOPROCARB]	1.071			Activity [9]: Toxic
COP(N)(=O)SC (configuration not stated) [METHAMIDOPHOS]		100	< 10	
CCOc1ccc([Si](C)(C)CCCc2ccc(F)c(Oc3ccccc3)c2)cc1 [SILAFLUOFEN]	14.22	37.6	1.1	
CN1COCN(Cc2cnc(Cl)s2)/C1=N\[N+](=O)[O-] [THIAMETHOXAM]	0.52		66.8	Activity [9]: Toxic
CCOP(=S)(OCC)Oc1ncn(-c2ccccc2)n1 [TRIAZOPHOS]	1.253	100		mortality at 7 day [7]: 54.6%
